# B1: BMP-1: member of the BMP family, R&D Systems (protein, UniProt P13497 121-986, looked up)
# Bone morphogenetic protein 1: AATSRPERVWPDGVIPFVIGGNFTGSQRAVFRQAMRHWEKHTCVTFLERTDEDSYIVFTYRPCGCCSYVGRRGGGPQAISIGKNCDKFGIVVHELGHVVGFWHEHTRPDRDRHVSIVRENIQPGQEYNFLKMEPQEVESLGETYDFDSIMHYARNTFSRGIFLDTIVPKYEVNGVKPPIGQRTRLSKGDIAQARKLYKCPACGETLQDSTGNFSSPEYPNGYSAHMHCVWRISVTPGEKIILNFTSLDLYRSRLCWYDYVEVRDGFWRKAPLRGRFCGSKLPEPIVSTDSRLWVEFRSSSNWVGKGFFAVYEAICGGDVKKDYGHIQSPNYPDDYRPSKVCIWRIQVSEGFHVGLTFQSFEIERHDSCAYDYLEVRDGHSESSTLIGRYCGYEKPDDIKSTSSRLWLKFVSDGSINKAGFAVNFFKEVDECSRPNRGGCEQRCLNTLGSYKCSCDPGYELAPDKRRCEAACGGFLTKLNGSITSPGWPKEYPPNKNCIWQLVAPTQYRISLQFDFFETEGNDVCKYDFVEVRSGLTADSKLHGKFCGSEKPEVITSQYNNMRVEFKSDNTVSKKGFKAHFFSDKDECSKDNGGCQQDCVNTFGSYECQCRSGFVLHDNKHDCKEAGCDHKVTSTSGTITSPNWPDKYPSKKECTWAISSTPGHRVKLTFMEMDIESQPECAYDHLEVFDGRDAKAPVLGRFCGSKKPEPVLATGSRMFLRFYSDNSVQRKGFQASHATECGGQVRADVKTKDLYSHAQFGDNNYPGGVDCEWVIVAEEGYGVELVFQTFEVEEETDCGYDYMELFDGYDSTAPRLGRYCGSGPPEEVYSAGDSVLVKFHSDDTITKKGFHLRYTSTKFQDTLHSRK
# B2: FGF4: growth factor purchased from R&D Systems (protein, UniProt P08620 31-206, looked up)
# Fibroblast growth factor 4: APTAPNGTLEAELERRWESLVALSLARLPVAAQPKEAAVQSGAGDYLLGIKRLRRLYCNVGIGFHLQALPDGRIGGAHADTRDSLLELSPVERGVVSIFGVASRFFVAMSSKGKLYGSPFFTDECTFKEILLPNNYNAYESYKYPGMFIALSKNGKTKKGNRVSPTMKVTHFLPRL
# B3: BMP-7: member of the BMP family (protein, UniProt P18075 293-431, looked up)
# Bone morphogenetic protein 7: STGSKQRSQNRSKTPKNQEALRMANVAENSSSDQRQACKKHELYVSFRDLGWQDWIIAPEGYAAYYCEGECAFPLNSYMNATNHAIVQTLVHFINPETVPKPCCAPTQLNAISVLYFDDSSNVILKKYRNMVVRACGCH
# Key:
# [1] = tested on: H1 human embryonic stem cells; assay: Analogue screening in combination with only GDF-8, SOX17 (Example 21, Tables 18 and 19); format: cell-based; set-up: Sox17 Expression: % of positive control / Cell Number: % of positive control: tested at 2.5 µM; details: compound in combination with GDF8; for Cell Number: Average Total Cell Number / Sox17 Expression: Average Total Intensity: four assay plates; for Cell Number: % of positive control / Sox17 Expression: % of positive control: relative to Activin A/Wnt3a of the same plate
# Description: Briefly, clusters of H1 human embryonic stem cells were grown on reduced growth factor Matrigel™ (Invitrogen; Cat #356231)-coated tissue culture plastic. Cells were passaged using collagenase (Invitrogen; Cat #17104-019) treatment and gentle scraping, washed to remove residual enzyme, and plated with even dispersal at a ratio of 1:1 (surface area) on reduced growth factor […]™ (BD Biosciences; Cat #356231)-coated 96-well black plates (Packard ViewPlates; PerkinElmer; Cat #6005182) using volumes of 100 μl/well. Cells were allowed to attach and then recover log phase growth over a 1 to 3 day time period, feeding daily with MEF conditioned medium supplemented with 8 ng/ml bFGF (R&D Systems; Cat #233-FB). Plates were maintained at 37° C., 5% CO2 in a humidified box throughout the duration of assay.
# Screening was conducted using a library of the analogue compounds. Compounds from this library were made available as 5 mM stocks in 96-well plate format, solubilized in 100% DMSO (Sigma; Cat #D2650) and stored at −80° C. The library compounds were further diluted to an intermediate concentration of 0.2 mM in 50 mM HEPES (Invitrogen; Cat #15630-080), 20% DMSO and stored at 4° C. Test conditions were performed in triplicate, feeding on alternating days over a four-day assay period. Assays were initiated by aspirating culture medium from each well followed by three washes in PBS (Invitrogen; Cat #14190) to remove residual growth factors. On the first day of assay, test volumes of 200 μl per well were added to each well using DMEM:F12 base medium (Invitrogen; Cat #11330-032) supplemented with 0.5% FCS (HyClone; Cat #SH30070.03) and 200 ng/ml GDF-8 (R&D Systems, Cat #788-G8) plus 2.5 μM compound. On the third day of assay, test volumes of 100 μl per well were added to each well using DMEM:F12 base medium supplemented with 2% FCS plus 200 ng/ml GDF-8 (R&D Systems, Cat #788-G8). Positive control samples contained the same base medium supplemented with FCS and 1000 ng/ml recombinant human activin A (PeproTech; Cat #120-14) throughout the four-day assay along with Wnt3a (20 ng/ml) on days 1 and 2. Negative control samples contained DMEM:F12 base medium supplemented with FCS, adding Wnt3a on days 1 and 2 but omitting treatment with activin A.
# At the conclusion of four-days of culture, assay plates were washed twice with PBS (Invitrogen; Cat #14190), fixed with 4% paraformaldehyde (Alexis Biochemical; Cat #ALX-350-011) at room temperature for 20 minutes, then washed three times with PBS and permeabilized with 0.5% Triton X-100 (Sigma; Cat #T8760-2) for 20 minutes at room temperature. Cells were washed again three times with PBS and blocked with 4% chicken serum (Invitrogen; Cat #16110082) in PBS for 30 minutes at room temperature. Primary antibody (goat anti-human SOX17; R&D Systems; Cat #AF1924) was diluted 1:100 in 4% chicken serum and added to each well for one hour at room temperature. Alexa Fluor 488 conjugated secondary antibody (chicken anti-goat IgG; Molecular Probes; Cat #AZ1467) was diluted 1:200 in PBS and added to each sample well after washing three times with PBS. To counterstain nuclei, 4 μg/ml Hoechst 33342 (Invitrogen; Cat #H3570) was added for ten minutes at room temperature. Plates were washed once with PBS and left in 100 μl/well PBS for imaging.
# Imaging was performed using an IN Cell Analyzer 1000 (GE Healthcare) utilizing the 51008bs dichroic for cells stained with Hoechst 33342 and Alexa Fluor 488. Exposure times were optimized from positive control wells and from untreated negative control wells stained with secondary antibody alone. Images from 15 fields per well were acquired to compensate for any cell loss during the bioassay and subsequent staining procedures. Measurements for total cell number and total SOX17 intensity were obtained from each well using IN Cell Developer Toolbox 1.7 (GE Healthcare) software. […]
# [2] = tested on: H1 human embryonic stem cells; assay: Secondary assay: compound combined with individual growth factors or small molecules, no activin A (Example 5, Table 4); format: cell-based; details: no activin A; for effect on SOX17 expression: agent combined with 2.5 μM compound and Wnt3a
# Description: Clusters of H1 human embryonic stem cells were grown on reduced growth factor […]™ (Invitrogen; Cat #356231)-coated tissue culture plastic. Cells were passaged using collagenase (Invitrogen; Cat #Cat #17104-019) treatment and gentle scraping, washed to remove residual enzyme, and plated with even dispersal at a ratio of 1:1 (surface area) on reduced growth factor […]™-coated 96-well black plates (Packard ViewPlates; PerkinElmer; Cat #6005182) using volumes of 100 μl/well. Cells were allowed to attach as clusters and then recover log phase growth over a 1 to 3 day period, feeding daily with MEF conditioned medium supplemented with 8 ng/ml bFGF (R&D Systems; Cat #233-FB). Plates were maintained at 37° C., 5% CO2 in a humidified box throughout the duration of assay.
# Other agents tested were purchased as follows: BMP-7 (Sigma; Cat #B1434), LY294002 (Cayman; Cat 70920), PD98059, U0126, U0124 (EMD Biosciences; Cat #453710), muscimol (Tocris; Cat #0289), biuculline (Tocris; Cat #0130), sodium butyrate (Sigma; Cat #B5887). All growth factors were solubilized in PBS with 0.1% BSA (Sigma; Cat #A7888) and stored frozen at −80° C. Small molecules were solubilized in 100% DMSO (Sigma; Cat #D2650) and stored frozen at −80° C. The compounds were available as 5 mM stocks in 96-well plate format, solubilized in 100% DMSO and stored at −80° C. The compounds of the present invention were further diluted to an intermediate concentration of 0.2 mM in 50 mM HEPES (Invitrogen; Cat #15630-080), 20% DMSO and stored at 4° C. All growth factors and inhibitors were prepared in a deep well, 96-well polypropylene plate, diluted to 5× intermediate stocks in DMEM:F12 base medium at the beginning of assay and stored at 4° C.
# A secondary screening assay was conducted, testing in triplicate and feeding on alternate days over the four-day assay timeframe. Assays were initiated by aspirating culture medium from each well followed by three washes in PBS to remove residual growth factors and serum. Test volumes of 80 μl per well were added back containing DMEM:F12 base medium (Invitrogen; Cat #11330-032) supplemented with 0.625% FCS (HyClone; Cat #SH30070.03), 25 ng/ml Wnt3a (R&D Systems), and 3.125 μM compound plus 20 μl 5× stock of growth factor or small molecule to yield a final concentration of 0.5% FCS, 20 ng/ml Wnt3a, and 2.5 μM compound. […] Final assay concentrations of small molecules tested were as follows: muscimol (20 μM), PD98059 (1 μM), LY294002 (2.5 μM), 00124 (1 μM), U0126 (1 μM), sodium butyrate (0.5 mM). Positive control wells (100 μl/well) contained the same base medium supplemented with 0.5% FCS, 20 ng/ml Wnt3a and 100 ng/ml activin A. Negative control wells (100 μl/well) contained the same base medium with 0.5% FCS and 20 ng/ml Wnt3a, omitting activin A.
# On day 3, wells were aspirated and fed with 80 μl DMEM:F12 base medium supplemented with 2.5% FCS (HyClone) and 3.125 μM cyclic aniline-pyridinotriazine compound plus 20 μl 5× stock of growth factors or small molecules per well to yield a final concentration of 2% FCS and 2.5 μM compound (omitting Wnt3a) and as denoted on day one for all remaining growth factors or small molecules. Positive control wells (100 μl/well) contained the same base medium supplemented with 2% FCS and 100 ng/ml activin A, omitting Wnt3a. Negative control wells (100 μl/well) contained the same base medium with 2% FCS, omitting both activin A and Wnt3a.
# At the conclusion of four-days of culture, assay plates were washed twice with PBS, fixed with 4% paraformaldehyde (Alexis Biochemical; Cat #ALX-350-011) at room temperature for 20 minutes, then washed three times with PBS and permeabilized with 0.5% Triton X-100 (Sigma; Cat #T8760-2) for 20 minutes at room temperature. Cells were washed again three times with PBS and blocked with 4% chicken serum (Invitrogen; Cat #16110082) in PBS for 30 minutes at room temperature.
Molecule,Cell Number: Average Total Cell Number [1],Sox17 Expression: Average Total Intensity [1],Cell Number: % of positive control [1] [%],Sox17 Expression: % of positive control [1] [%],effect on SOX17 expression [2],retention of cell numbers ([2]; 50 ng/ml combined with 2.5 μM compound and Wnt3a),increase in SOX17 expression (% of the activin A/Wnt3a control) ([2]; growth factor 50 ng/ml combined with 2.5 μM compound and Wnt3a) [%]
"O=C(O)CCc1cccc(Nc2ncnc(-c3cccnc3)n2)c1 [Compound 1, 3-{3-[(4-Pyridin-3-yl-1,3,5-triazin-2-yl)amino]phenyl}propanoic acid]",3213,6.48E+06,21.0,1.9,,,
"OCCc1cccc(Nc2ncnc(-c3cccnc3)n2)c1 [Compound 2, 2-{3-[(4-Pyridin-3-yl-1,3,5-triazin-2-yl)amino]phenyl}ethanol]",4538,2.95E+07,30.2,8.6,,,
"CC(C)(C)OC(=O)NCCCCc1cc(-c2ncnc(Nc3cccc(CO)c3)n2)ccn1 [Compound 4, 1,1-Dimethylethyl {4-[4-(4-{[3-(hydroxymethyl)phenyl]amino}-1,3,5-triazin-2-yl)pyridin-2-yl]butyl}carbamate]",3163,1.58E+07,20.7,4.7,,,
"COc1ccc(-c2ccnc(Nc3cc(Br)cc(CO)c3)n2)cc1CN(C)CCCNC(=O)OC(C)(C)C [Compound 5, 1,1-Dimethylethyl {3-[{[5-(2-{[3-bromo-5-(hydroxymethyl)phenyl]amino}pyrimidin-4-yl)-2-(methyloxy)phenyl]methyl}(methyl)amino]propyl}carbamate]",3137,1.30E+07,20.5,3.9,,,
B1,,,,,inhibited or had negligible effects on SOX17 expression,,
B2,,,,,,not able to support retention of cell numbers,17
B3,,,,,inhibited or had negligible effects on SOX17 expression,,

# — patent US9593305B2, “Differentiation of pluripotent stem cells” (Janssen Biotech, Inc., priority 2008, dated 2017)
